Assays:
Cavia porcellus [1] = species: Cavia porcellus; assay: Inhibitory effect of compound was measured for arterial contraction in guinea pig; format: functional, organism-based
Cavia porcellus [2] = species: Cavia porcellus; assay: Inhibitory effect of compound was measured for platelet aggregation in guinea pig blood; format: functional, organism-based

| IC50 (Cavia porcellus [1]) | IC50 (Cavia porcellus [2]) | Compound |
| --- | --- | --- |
| 30 µM | 6.8 µM | CN[C@@H]1CC2O[C@@](C)([C@@H]1OC)n1c3ccccc3c3c(CO)c(CO)c4c5ccccc5n2c4c31 |
| > 10 µM | 5.4 µM | CO[C@@H]1[C@H](N(C)C)CC2O[C@]1(C)n1c3ccccc3c3c4c(c5c6ccccc6n2c5c31)C(=O)OC4 |
| > 30 µM | 6.8 µM | CN[C@@H]1CC2O[C@@](C)([C@@H]1OC)n1c3ccccc3c3c4c(c5c6ccccc6n2c5c31)C(=O)OC4 |
| 3 µM | 0.4 µM | CN[C@@H]1CC2O[C@@](C)([C@@H]1OC)n1c3ccc(O)cc3c3c4c(c5c6cc(O)ccc6n2c5c31)C(=O)OC4 |
